{"source": "PubChem BioAssay AID1963836", "about": "(Molecular Pharmacology Branch, DTP, NCI, 2024);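 also: spheroids exposed to compounds for seven days before readout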", "tested_on": "857933-349-R-J2-PDC complex spheroid viability", "test": "Anticancer human tumor 857933-349-R-J2-PDC patient-derived colon adenocarcinoma cell line growth inhibition [POLQ]", "conditions": "for IC50: curve of first compound; for viability, T/C: stronger effect = lower value", "outline": "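Complex spheroid viability model combining PDC tumour cells with endothelial (HUVEC) and MSC stromal cells. Novobiocin, ART-558 or RP6685 were tested singly and in combination with standard and investigational anticancer drugs. Each was titrated in half-log steps from near clinical Cmax, or from 10 microM where Cmax was unknown.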", "key": {"[1]": {"conditions": "second compound 0.0316 µM, first compound 0.0316 µM"}, "[2]": {"conditions": "second compound 0.0316 µM, first compound 0.1 µM"}, "[3]": {"conditions": "second compound 0.0316 µM, first compound 0.316 µM"}, "[4]": {"conditions": "second compound 0.0316 µM, first compound 1 µM"}, "[5]": {"conditions": "second compound 0.1 µM, first compound 0.0316 µM"}, "[6]": {"conditions": "second compound 0.1 µM, first compound 0.1 µM"}, "[7]": {"conditions": "second compound 0.1 µM, first compound 0.316 µM"}, "[8]": {"conditions": "second compound 0.1 µM, first compound 1 µM"}, "[9]": {"conditions": "second compound 0.316 µM, first compound 0.0316 µM"}, "[10]": {"conditions": "second compound 0.316 µM, first compound 0.1 µM"}, "[11]": {"conditions": "second compound 0.316 µM, first compound 0.316 µM"}, "[12]": {"conditions": "second compound 0.316 µM, first compound 1 µM"}, "[13]": {"conditions": "second compound 1 µM, first compound 0.0316 µM"}, "[14]": {"conditions": "second compound 1 µM, first compound 0.1 µM"}, "[15]": {"conditions": "second compound 1 µM, first compound 0.316 µM"}, "[16]": {"conditions": "second compound 1 µM, first compound 1 µM"}, "[17]": {"conditions": "second compound 3.16 µM, first compound 0.0316 µM"}, "[18]": {"conditions": "second compound 3.16 µM, first compound 0.1 µM"}, "[19]": {"conditions": "second compound 3.16 µM, first compound 0.316 µM"}, "[20]": {"conditions": "second compound 3.16 µM, first compound 1 µM"}, "[21]": {"conditions": "second compound 10 µM, first compound 0.0316 µM"}, "[22]": {"conditions": "second compound 10 µM, first compound 0.1 µM"}, "[23]": {"conditions": "second compound 10 µM, first compound 0.316 µM"}, "[24]": {"conditions": "second compound 10 µM, first compound 1 µM"}}, "data": [{"smiles": "CNCc1ccc(-c2[nH]c3cc(F)cc4c3c2CCNC4=O)cc1", "note": "+ Nc1ccc(C#CCN(C(=O)Cc2ncc(C(F)(F)F)cc2C(F)(F)F)c2ccc(F)cc2)nn1", "values": [{"measurement": "IC50", "setting": "second compound 0.0316 µM", "result": "> 10", "unit": "µM"}, {"measurement": "IC50", "setting": "second compound 0.1 µM", "result": "> 10", "unit": "µM"}, {"measurement": "IC50", "setting": "second compound 0.316 µM", "result": "> 10", "unit": "µM"}, {"measurement": "IC50", "setting": "second compound 1 µM", "result": "> 10", "unit": "µM"}, {"measurement": "IC50", "setting": "second compound 3.16 µM", "result": "> 10", "unit": "µM"}, {"measurement": "IC50", "setting": "second compound 10 µM", "result": "> 10", "unit": "µM"}, {"measurement": "viability, T/C", "setting": "[1]", "result": 91.7, "unit": "%"}, {"measurement": "viability, T/C", "setting": "[2]", "result": 101, "unit": "%"}, {"measurement": "viability, T/C", "setting": "[3]", "result": 92, "unit": "%"}, {"measurement": "viability, T/C", "setting": "[4]", "result": 97.1, "unit": "%"}, {"measurement": "viability, T/C", "setting": "second compound 0.0316 µM, first compound 3.16 µM", "result": 101, "unit": "%"}, {"measurement": "viability, T/C", "setting": "second compound 0.0316 µM, first compound 10 µM", "result": 98.2, "unit": "%"}, {"measurement": "viability, T/C", "setting": "[5]", "result": 94.5, "unit": "%"}, {"measurement": "viability, T/C", "setting": "[6]", "result": 78.7, "unit": "%"}, {"measurement": "viability, T/C", "setting": "[7]", "result": 85.6, "unit": "%"}, {"measurement": "viability, T/C", "setting": "[8]", "result": 110, "unit": "%"}, {"measurement": "viability, T/C", "setting": "second compound 0.1 µM, first compound 3.16 µM", "result": 103, "unit": "%"}, {"measurement": "viability, T/C", "setting": "second compound 0.1 µM, first compound 10 µM", "result": 93.7, "unit": "%"}, {"measurement": "viability, T/C", "setting": "[9]", "result": 103, "unit": "%"}, {"measurement": "viability, T/C", "setting": "[10]", "result": 102, "unit": "%"}, {"measurement": "viability, T/C", "setting": "[11]", "result": 95.3, "unit": "%"}, {"measurement": "viability, T/C", "setting": "[12]", "result": 94.9, "unit": "%"}, {"measurement": "viability, T/C", "setting": "second compound 0.316 µM, first compound 3.16 µM", "result": 107, "unit": "%"}, {"measurement": "viability, T/C", "setting": "second compound 0.316 µM, first compound 10 µM", "result": 90.6, "unit": "%"}, {"measurement": "viability, T/C", "setting": "[13]", "result": 93.4, "unit": "%"}, {"measurement": "viability, T/C", "setting": "[14]", "result": 101, "unit": "%"}, {"measurement": "viability, T/C", "setting": "[15]", "result": 98.9, "unit": "%"}, {"measurement": "viability, T/C", "setting": "[16]", "result": 107, "unit": "%"}, {"measurement": "viability, T/C", "setting": "second compound 1 µM, first compound 3.16 µM", "result": 94.3, "unit": "%"}, {"measurement": "viability, T/C", "setting": "second compound 1 µM, first compound 10 µM", "result": 98.2, "unit": "%"}, {"measurement": "viability, T/C", "setting": "[17]", "result": 96.3, "unit": "%"}, {"measurement": "viability, T/C", "setting": "[18]", "result": 84.9, "unit": "%"}, {"measurement": "viability, T/C", "setting": "[19]", "result": 92.1, "unit": "%"}, {"measurement": "viability, T/C", "setting": "[20]", "result": 104, "unit": "%"}, {"measurement": "viability, T/C", "setting": "second compound 3.16 µM, first compound 3.16 µM", "result": 97.7, "unit": "%"}, {"measurement": "viability, T/C", "setting": "second compound 3.16 µM, first compound 10 µM", "result": 101, "unit": "%"}, {"measurement": "viability, T/C", "setting": "[21]", "result": 91.6, "unit": "%"}, {"measurement": "viability, T/C", "setting": "[22]", "result": 99, "unit": "%"}, {"measurement": "viability, T/C", "setting": "[23]", "result": 91.2, "unit": "%"}, {"measurement": "viability, T/C", "setting": "[24]", "result": 93, "unit": "%"}, {"measurement": "viability, T/C", "setting": "second compound 10 µM, first compound 3.16 µM", "result": 100, "unit": "%"}, {"measurement": "viability, T/C", "setting": "second compound 10 µM, first compound 10 µM", "result": 92, "unit": "%"}]}, {"smiles": "COc1cccc(OCCCN)c1-c1cc(Nc2cnc(C#N)cn2)n[nH]1", "note": "+ Nc1ccc(C#CCN(C(=O)Cc2ncc(C(F)(F)F)cc2C(F)(F)F)c2ccc(F)cc2)nn1", "values": [{"measurement": "IC50", "setting": "second compound 0.0316 µM", "result": "> 1", "unit": "µM"}, {"measurement": "IC50", "setting": "second compound 0.1 µM", "result": 0.685, "unit": "µM"}, {"measurement": "IC50", "setting": "second compound 0.316 µM", "result": "> 1", "unit": "µM"}, {"measurement": "IC50", "setting": "second compound 1 µM", "result": 0.67, "unit": "µM"}, {"measurement": "IC50", "setting": "second compound 3.16 µM", "result": "> 1", "unit": "µM"}, {"measurement": "IC50", "setting": "second compound 10 µM", "result": "> 1", "unit": "µM"}, {"measurement": "viability, T/C", "setting": "second compound 0.0316 µM, first compound 0.00316 µM", "result": 101, "unit": "%"}, {"measurement": "viability, T/C", "setting": "second compound 0.0316 µM, first compound 0.01 µM", "result": 113, "unit": "%"}, {"measurement": "viability, T/C", "setting": "[1]", "result": 83.8, "unit": "%"}, {"measurement": "viability, T/C", "setting": "[2]", "result": 68.4, "unit": "%"}, {"measurement": "viability, T/C", "setting": "[3]", "result": 58.9, "unit": "%"}, {"measurement": "viability, T/C", "setting": "[4]", "result": 50.2, "unit": "%"}, {"measurement": "viability, T/C", "setting": "second compound 0.1 µM, first compound 0.00316 µM", "result": 104, "unit": "%"}, {"measurement": "viability, T/C", "setting": "second compound 0.1 µM, first compound 0.01 µM", "result": 107, "unit": "%"}, {"measurement": "viability, T/C", "setting": "[5]", "result": 76.9, "unit": "%"}, {"measurement": "viability, T/C", "setting": "[6]", "result": 88.8, "unit": "%"}, {"measurement": "viability, T/C", "setting": "[7]", "result": 58.2, "unit": "%"}, {"measurement": "viability, T/C", "setting": "[8]", "result": 44.3, "unit": "%"}, {"measurement": "viability, T/C", "setting": "second compound 0.316 µM, first compound 0.00316 µM", "result": 105, "unit": "%"}, {"measurement": "viability, T/C", "setting": "second compound 0.316 µM, first compound 0.01 µM", "result": 101, "unit": "%"}, {"measurement": "viability, T/C", "setting": "[9]", "result": 88.2, "unit": "%"}, {"measurement": "viability, T/C", "setting": "[10]", "result": 62.1, "unit": "%"}, {"measurement": "viability, T/C", "setting": "[11]", "result": 57.8, "unit": "%"}, {"measurement": "viability, T/C", "setting": "[12]", "result": 54.4, "unit": "%"}, {"measurement": "viability, T/C", "setting": "second compound 1 µM, first compound 0.00316 µM", "result": 109, "unit": "%"}, {"measurement": "viability, T/C", "setting": "second compound 1 µM, first compound 0.01 µM", "result": 88.5, "unit": "%"}, {"measurement": "viability, T/C", "setting": "[13]", "result": 80.5, "unit": "%"}, {"measurement": "viability, T/C", "setting": "[14]", "result": 70, "unit": "%"}, {"measurement": "viability, T/C", "setting": "[15]", "result": 53.9, "unit": "%"}, {"measurement": "viability, T/C", "setting": "[16]", "result": 47.1, "unit": "%"}, {"measurement": "viability, T/C", "setting": "second compound 3.16 µM, first compound 0.00316 µM", "result": 101, "unit": "%"}, {"measurement": "viability, T/C", "setting": "second compound 3.16 µM, first compound 0.01 µM", "result": 96.9, "unit": "%"}, {"measurement": "viability, T/C", "setting": "[17]", "result": 81.9, "unit": "%"}, {"measurement": "viability, T/C", "setting": "[18]", "result": 66.8, "unit": "%"}, {"measurement": "viability, T/C", "setting": "[19]", "result": 51.2, "unit": "%"}, {"measurement": "viability, T/C", "setting": "[20]", "result": 54.9, "unit": "%"}, {"measurement": "viability, T/C", "setting": "second compound 10 µM, first compound 0.00316 µM", "result": 86.8, "unit": "%"}, {"measurement": "viability, T/C", "setting": "second compound 10 µM, first compound 0.01 µM", "result": 102, "unit": "%"}, {"measurement": "viability, T/C", "setting": "[21]", "result": 76.9, "unit": "%"}, {"measurement": "viability, T/C", "setting": "[22]", "result": 69.8, "unit": "%"}, {"measurement": "viability, T/C", "setting": "[23]", "result": 57, "unit": "%"}, {"measurement": "viability, T/C", "setting": "[24]", "result": 54, "unit": "%"}]}]}
